Measurements published in PMC8064491, “Design and Synthesis of Novel Symmetric Fluorene-2,7-Diamine Derivatives as Potent Hepatitis C Virus Inhibitors” (Pharmaceuticals, 2021).
Where two headings read alike, the source gives them in different places.

Legend:
[1] = Cytotoxicity by intracellular ATP levels; assay type: cell-based; conditions: human, Huh5-2 cells, read-out: HCV Replicon 1b CC50
Experimental: (§1) The HCV RNA replication inhibitory effect of the novel compounds and their impact on cell viability was tested in the stable cell line Huh5-2 carrying an HCV subgenomic reporter replicon of genotype 1b (strain Con1). The viral replication level was measured in terms of the activity of the co-expressed firefly luciferase (F-Luc). Several concentrations of the tested compounds were prepared in a cell culture medium and were used to treat the cells for 72 h. The solvent DMSO was added as a control with a final concentration of 0.2% so as not to impact viral replication (data not shown). First, different compound concentrations of up to 100 μM were evaluated for their effect on cell viability; results are reported as the median cytotoxic concentration (CC50). Next, all compounds were screened for their anti-HCV activity at a concentration of 1 µM, and compounds showing ≥50% activity were further tested in several concentrations to calculate the median effective concentration (EC50) values (Table 1 and Table 2). The anti-HCV activity of the analogs 1–32 was estimated by quantifying luciferase activity resulting from viral replication. Cytotoxicity was determined by measuring the intracellular levels of ATP. The selectivity index (SI50) was calculated as the ratio of CC50 to EC50 and was calculated as an indication of the compounds’ safety. We used daclatasvir as a positive control.
(§2) Cells were treated with serial dilutions of the test compounds or the solvent DMSO for 72 h. Antiviral activity and cytotoxicity were determined by measuring virus-derived luciferase activity or intracellular ATP levels, respectively. The median effective concentration (EC50) of the compounds, reducing luciferase signal by 50%, and their median cytotoxic concentration (CC50), causing 50% cell death, were determined by nonlinear regression analysis using the Prism 6.0 software (GraphPad Software Inc.). Daclatasvir was kindly provided by Dr. Marc Windisch (Institut Pasteur Korea).
(§3) ATP was measured using the ViaLight HS BioAssay kit (Lonza) according to the manufacturer’s protocol in a GloMax 20/20 single-tube luminometer (Promega) for 1 s. Values were normalized to total protein amounts.

[2] = tested on: HCV subgenomic reporter replicon of genotype 1b (strain Con1); experiment: Anti-HCV 1b activity, luciferase reporter replicon assay in Huh5-2 cells; assay type: cell-based, Hepatitis C virus; conditions: for EC50: read-out: HCV Replicon 1b EC50; for HCV Replicon 1b SI50: SI50 = CC50/EC50; for fold more potent than six-membered congeners: 1, 9, 17, 21 vs 29, 30, 31, 32 respectively
Experimental: as §1
(§4) The stable replicon cell line Huh5-2 (genotype 1b; Con1) (kindly provided by R. Bartenschlager, Heidelberg University, Germany) has been described previously. The stable cell lines Huh7.5-3a and Huh7.5-4a have been constructed with the subgenomic reporter replicons of HCV 3a (S52) S52-SG(Feo)(AII) and HCV 4a (ED43) ED43-SG(Feo)(VYG) (kindly provided by C.M. Rice, The Rockefeller University, NY). Cells were cultured in high glucose (25 mM) Dulbecco’s modified minimal essential medium (Invitrogen), supplemented with 2 mM L-glutamine, 0.1 mM non-essential amino acids, 100 U/mL penicillin, 100 µg/mL streptomycin, and 10% (v/v) fetal calf serum (referred to as complete DMEM). Complete DMEM was supplemented with G418 at 500 μg/mL for Huh5-2, 750 μg/mL for Huh7.5-3a, and 350 μg/mL for Huh7.5-4a.
as §2
Firefly luciferase activity was measured using Luciferase Assay System (Promega), according to the manufacturer’s instructions. Measurements were performed with a GloMax 20/20 single tube luminometer (Promega) for 10 s. Values were normalized to total protein amounts as quantified by Bradford assay (Pierce).

[3] = tested on: HCV subgenomic replicon of genotype 3a (strain S52); experiment: Anti-HCV 3a activity, replicon assay in Huh7.5-3a cells; assay type: cell-based, Hepatitis C virus; conditions: Hepatitis C virus; Huh7.5-3a cells; read-out: EC50 GT 3a
Source text: Compound 26, showing the highest activity on genotype 1b was further tested against HCV 3a and 4a replicons. The fact that genotype 4 is highly heterogeneous, of less response to DAAs, and the most prevalent genotype in Egypt, made this genotype of specific interest. Moreover, genotype 3 is the most difficult to treat genotype using DAAs, especially in patients with liver cirrhosis. Specifically, Huh7.5-3a and Huh7.5-4a stable cell lines having HCV subgenomic replicons of genotypes 3a (strain S52) and 4a (strain ED43), respectively, were treated with different concentrations of compound 26. […] Further structural optimization is required, and testing compound 26 in combination with other DAAs could improve the clinical outcome.
as §4
Cells were treated with serial dilutions of the test compounds or the solvent DMSO for 72 h. Antiviral activity and cytotoxicity were determined by measuring virus-derived luciferase activity or intracellular ATP levels, respectively. […]
Firefly luciferase activity was measured using Luciferase Assay System (Promega), according to the manufacturer’s instructions. […] Values were normalized to total protein amounts as quantified by Bradford assay (Pierce).

Huh5-2 cells = experiment: Cytotoxicity by intracellular ATP levels; assay type: cell-based; conditions: 72 h, read-out: HCV Replicon 1b CC50
Experimental: as §1, §2, §3

[4] = Hepatitis C virus, Huh-5-2, Huh5-2 cells, 72 h, luciferase activity
[5] = Huh5-2 cells, 72 h, luciferase activity
[6] = Hepatitis C virus, Huh-5-2, 72 h

| Molecule | CC50 at 72 h [1] [nM] | HCV Replicon 1b SI50 [2] | CC50 (Huh5-2 cells) [nM] | EC50 [2, 5] [nM] | EC50 [2, 6] [nM] | also measured |
| --- | --- | --- | --- | --- | --- | --- |
| COC(=O)N[C@H](C(=O)N1CCC[C@H]1c1nc(-c2ccc(-c3ccc(-c4c[nH]c([C@@H]5CCCN5C(=O)[C@@H](NC(=O)OC)C(C)C)n4)cc3)cc2)c[nH]1)C(C)C [Daclatasvir, reference compound] | 17700 | 655,556 |  |  |  | EC50 [2, 4]: 0.027 nM; EC50 [3]: 8.3 nM |
| Diethyl((2S,2’S)-((2S,2’S)-(((9H-fluorene-2,7 diyl)bis(azanediyl))bis(carbonyl)) bis(pyrrolidine-2,1-diyl))bis(4-methyl-1-oxopentane-1,2-diyl))dicarbamate [Compound 18] |  | >664 | > 100000 | 151 |  |  |
| Dibenzyl((2S,2’S)-((2S,2’S)-(((9H-fluorene-2,7-diyl)bis(azanediyl))bis(carbonyl))bis(pyrrolidine-2,1-diyl))bis(4-methyl-1-oxopentane-1,2-diyl))dicarbamate [Compound 20] |  |  | 98700 | > 1000 |  |  |
| Dimethyl((2S,2’S)-((2S,2’S)-(((9H-fluorene-2,7-diyl)bis(azanediyl))bis (carbonyl)) bis(pyrrolidine-2,1-diyl))bis(4-methyl-1-oxopentane-1,2-diyl))dicarbamate [Compound 17] |  | >9381 | > 100000 | 10.7 |  | fold more potent than six-membered congeners ([2]; HCV 1b EC50 ratio): 28 fold |
| Diethyl((2S,2’S)-((2S,2’S)-(((9H-fluorene-2,7-diyl)bis(azanediyl))bis(carbonyl))bis(pyrrolidine-2,1-diyl))bis(3-methyl-1-oxopentane-1,2-diyl))dicarbamate [Compound 10] |  | 622,344 | 85500 | 0.137 |  | fold more potent than congener with D-leucine moiety ([2]; HCV 1b EC50 ratio): 18 fold |
| Dibenzyl((2S,2’S)-((2S,2’S)-(((9H-fluorene-2,7-diyl)bis(azanediyl))bis(carbonyl))bis(pyrrolidine-2,1-diyl))bis(3-methyl-1-oxopentane-1,2-diyl))dicarbamate [Compound 12] |  |  | 46400 | > 1000 |  |  |
| COC(=O)N[C@H](CC(C)C)C(=O)N1CCC[C@H]1C(=O)Nc1ccc2c(c1)Cc1cc(NC(=O)[C@@H]3CCCN3C(=O)[C@@H](CC(C)C)NC(=O)OC)ccc1-2 [Compound 13, Dimethyl((2R,2’R)-((2S,2’S)-(((9H-fluorene-2,7-diyl)bis(azanediyl))bis(carbonyl))bis(pyrrolidine-2,1-diyl))bis(4-methyl-1-oxopentane-1,2-diyl))dicarbamate] | > 100000 | >1,238,850 |  |  | 0.081 |  |
| CCOC(=O)N[C@@H](C(=O)N1CCC[C@H]1C(=O)Nc1ccc2c(c1)Cc1cc(NC(=O)[C@@H]3CCCN3C(=O)[C@H](NC(=O)OCC)C(C)C)ccc1-2)C(C)C [Compound 6, Diethyl((2R,2’R)-((2S,2’S)-(((9H-fluorene-2,7-diyl)bis(azanediyl))bis(carbonyl))bis(pyrrolidine-2,1-diyl))bis(3-methyl-1-oxobutane-1,2-diyl))dicarbamate] | 79600 | 780 |  |  | 102 |  |
| O=C(N[C@H](C(=O)N1CCC[C@H]1C(=O)Nc1ccc2c(c1)Cc1cc(NC(=O)[C@@H]3CCCN3C(=O)[C@@H](NC(=O)OCc3ccccc3)c3ccccc3)ccc1-2)c1ccccc1)OCc1ccccc1 [Compound 24, Dibenzyl((1S,1’S)-((2S,2’S)-(((9H-fluorene-2,7-diyl)bis(azanediyl))bis(carbonyl))bis(pyrrolidine-2,1-diyl))bis(2-oxo-1-phenylethane-2,1-diyl))dicarbamate] | > 100000 | >89,606 |  |  |  | EC50 [2, 4]: 1.12 nM |
| CCC(C)[C@H](NC(=O)OC)C(=O)N1CCCC(C(=O)Nc2ccc3c(c2)Cc2cc(NC(=O)C4CCCN(C(=O)[C@@H](NC(=O)OC)C(C)CC)C4)ccc2-3)C1 (stereo partly shown) [Compound 31] | 98300 | 333 |  |  | 296 |  |
| COC(=O)N[C@@H](C(=O)N1CCC[C@H]1C(=O)Nc1ccc2c(c1)Cc1cc(NC(=O)[C@@H]3CCCN3C(=O)[C@H](NC(=O)OC)c3ccccc3)ccc1-2)c1ccccc1 [Compound 25, Dimethyl((1R,1’R)-((2S,2’S)-(((9H-fluorene-2,7-diyl)bis(azanediyl))bis(carbonyl))bis(pyrrolidine-2,1-diyl))bis(2-oxo-1-phenylethane-2,1-diyl))dicarbamate] | 95400 | 669,874 |  |  | 0.142 | fold more active than S counterparts ([2]; 25 vs 21, 26 vs 22, HCV 1b EC50 ratio): 60 fold; times less potent than compound 26 ([2]; HCV 1b EC50 ratio): four times less potent |
| CC(C)C[C@@H](NC(=O)OCc1ccccc1)C(=O)N1CCC[C@H]1C(=O)Nc1ccc2c(c1)Cc1cc(NC(=O)[C@@H]3CCCN3C(=O)[C@@H](CC(C)C)NC(=O)OCc3ccccc3)ccc1-2 [Compound 16, Dibenzyl((2R,2’R)-((2S,2’S)-(((9H-fluorene-2,7-diyl)bis(azanediyl))bis(carbonyl))bis(pyrrolidine-2,1-diyl))bis(4-methyl-1-oxopentane-1,2-diyl))dicarbamate] | > 100000 |  |  |  | > 1000 |  |
| CCCCOC(=O)N[C@@H](C(=O)N1CCC[C@H]1C(=O)Nc1ccc2c(c1)Cc1cc(NC(=O)[C@@H]3CCCN3C(=O)[C@H](NC(=O)OCCCC)C(C)C)ccc1-2)C(C)C [Compound 7, Dibutyl((2R,2’R)-((2S,2’S)-(((9H-fluorene-2,7-diyl)bis(azanediyl))bis(carbonyl))bis(pyrrolidine-2,1-diyl))bis(3-methyl-1-oxobutane-1,2-diyl))dicarbamate] | > 100000 | >102 |  |  | 981 |  |
| COC(=O)N[C@H](C(=O)N1CCCC(C(=O)Nc2ccc3c(c2)Cc2cc(NC(=O)C4CCCN(C(=O)[C@@H](NC(=O)OC)C(C)C)C4)ccc2-3)C1)C(C)C (stereo partly shown) [Compound 29] | > 100000 | >292 |  |  | 342 |  |
| Dimethyl((2S,2’S)-((2S,2’S)-(((9H-fluorene-2,7-diyl)bis(azanediyl))bis(carbonyl))bis(pyrrolidine-2,1-diyl))bis(3-methyl-1-oxopentane-1,2-diyl))dicarbamate [Compound 9] |  | >3636 | > 100000 | 27.5 |  | fold more potent than six-membered congeners ([2]; HCV 1b EC50 ratio): 11 fold; times less active than R congener compound 13 ([2]; HCV 1b EC50 ratio): around 340 times |
| COC(=O)N[C@H](C(=O)N1CCCC(C(=O)Nc2ccc3c(c2)Cc2cc(NC(=O)C4CCCN(C(=O)[C@@H](NC(=O)OC)c5ccccc5)C4)ccc2-3)C1)c1ccccc1 (stereo partly shown) [Compound 32] | > 100000 | >328 |  |  | 304 |  |
